For 23 molecules, inhibition results are on record in US8283361B2 (AstraZeneca AB, priority 2008, dated 2012).

Each structure is given as a SMILES string.

Chain of S. aureus GyrB ATPase (P0A0K8 whole entry): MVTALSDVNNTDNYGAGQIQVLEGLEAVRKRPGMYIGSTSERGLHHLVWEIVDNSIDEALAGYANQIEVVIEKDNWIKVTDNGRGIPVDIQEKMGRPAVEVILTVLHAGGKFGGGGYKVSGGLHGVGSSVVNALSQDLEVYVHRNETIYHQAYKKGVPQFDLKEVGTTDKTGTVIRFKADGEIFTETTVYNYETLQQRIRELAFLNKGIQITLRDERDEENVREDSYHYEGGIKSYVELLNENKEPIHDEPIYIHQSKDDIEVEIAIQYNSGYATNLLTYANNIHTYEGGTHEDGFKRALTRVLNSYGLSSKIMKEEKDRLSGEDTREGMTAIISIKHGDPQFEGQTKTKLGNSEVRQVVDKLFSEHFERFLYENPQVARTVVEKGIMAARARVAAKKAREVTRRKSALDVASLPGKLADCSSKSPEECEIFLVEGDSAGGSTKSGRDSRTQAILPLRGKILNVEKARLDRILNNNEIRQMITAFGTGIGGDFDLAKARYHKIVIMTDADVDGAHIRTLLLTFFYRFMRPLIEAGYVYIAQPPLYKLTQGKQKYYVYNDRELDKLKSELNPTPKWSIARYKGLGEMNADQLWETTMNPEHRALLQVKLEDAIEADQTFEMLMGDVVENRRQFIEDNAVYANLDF
Chain of S. aureus GyrB ATPase (P0AES4 whole entry, further chain): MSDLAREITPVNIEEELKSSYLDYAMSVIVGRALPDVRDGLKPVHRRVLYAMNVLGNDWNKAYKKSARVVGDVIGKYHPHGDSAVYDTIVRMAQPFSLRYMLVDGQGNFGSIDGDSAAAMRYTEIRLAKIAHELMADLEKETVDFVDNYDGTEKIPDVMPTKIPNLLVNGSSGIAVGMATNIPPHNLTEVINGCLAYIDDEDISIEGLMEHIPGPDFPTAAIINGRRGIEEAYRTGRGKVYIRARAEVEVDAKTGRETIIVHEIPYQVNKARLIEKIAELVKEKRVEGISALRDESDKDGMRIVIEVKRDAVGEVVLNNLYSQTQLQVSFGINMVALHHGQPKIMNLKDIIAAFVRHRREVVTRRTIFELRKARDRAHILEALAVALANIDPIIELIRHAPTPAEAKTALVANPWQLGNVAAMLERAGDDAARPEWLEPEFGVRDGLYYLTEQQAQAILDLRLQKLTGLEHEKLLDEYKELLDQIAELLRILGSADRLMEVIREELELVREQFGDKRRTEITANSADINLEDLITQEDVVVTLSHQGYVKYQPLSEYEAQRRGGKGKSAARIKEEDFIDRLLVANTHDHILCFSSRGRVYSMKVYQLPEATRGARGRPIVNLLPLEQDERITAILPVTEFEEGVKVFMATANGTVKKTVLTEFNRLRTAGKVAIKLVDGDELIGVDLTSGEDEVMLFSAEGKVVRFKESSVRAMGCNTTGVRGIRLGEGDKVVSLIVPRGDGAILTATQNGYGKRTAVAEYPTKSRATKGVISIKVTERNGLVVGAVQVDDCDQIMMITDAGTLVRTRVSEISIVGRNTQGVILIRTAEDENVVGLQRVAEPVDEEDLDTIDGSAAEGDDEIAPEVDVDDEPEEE

The assay concerns the target S. aureus GyrB ATPase (Staphylococcus aureus, UniProt P0A0K8). Description: biochemical. The conditions noted are these: compound at 1 μM; one value per test if tested more than once; read-out: % Inhibition of S. aureus GyrB ATPase. The essentials:
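IC50 values derive from 10-point titrations of compound (in DMSO). Phosphate formed from 250 μM ATP was quantified by acidic molybdate/malachite green after quenching.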
Take `CCNC(=O)Nc1cc(-c2nc(C(F)(F)F)cs2)c(-c2ccc3c(c2)c(=O)c(C(=O)N2CCN(C(C)=O)CC2)cn3CCN(C)C)cn1` [Example 162, 1-(5-(3-(4-acetylpiperazine-1-carbonyl)-1-(2-(dimethylamino)ethyl)-4-oxo-1,4-dihydroquinolin-6-yl)-4-(4-(trifluoromethyl)thiazol-2-yl)pyridin-2-yl)-3-ethylurea]: the inhibition at 1 µM stood at 106%.
With `CCNC(=O)Nc1cc(-c2nc(C(F)(F)F)cs2)c(-c2ccc3c(c2)c(=O)c(C(=O)N2CCN(S(C)(=O)=O)CC2)cn3C2CN(C)C2)cn1` [Example 163, 1-ethyl-3-(5-(1-(1-methylazetidin-3-yl)-3-(4-(methylsulfonyl)piperazine-1-carbonyl)-4-oxo-1,4-dihydroquinolin-6-yl)-4-(4-(trifluoromethyl)thiazol-2-yl)pyridin-2-yl)urea], the inhibition at 1 µM came to 106%.
The figure for `CCCNC(=O)Nc1cc(-c2nc(C(F)(F)F)cs2)c(-c2ccc3c(c2)c(=O)c(C(=O)N2CCN(S(=O)(=O)N(C)C)CC2)cn3C2CN(C)C2)cn1` [Example 164, N,N-dimethyl-4-(1-(1-methylazetidin-3-yl)-4-oxo-6-(6-(3-propylureido)-4-(4-(trifluoromethyl)thiazol-2-yl)pyridin-3-yl)-1,4-dihydroquinoline-3-carbonyl)piperazine-1-sulfonamide] is 107%; for `CCNC(=O)Nc1cc(-c2nc(C(F)(F)F)cs2)c(-c2ccc3c(c2)c(=O)c(C(=O)N2CCN(S(=O)(=O)N(C)C)CC2)cn3C2CN(C)C2)cn1` [Example 165, 4-(6-(6-(3-ethylureido)-4-(4-(trifluoromethyl)thiazol-2-yl)pyridin-3-yl)-1-(1-methylazetidin-3-yl)-4-oxo-1,4-dihydroquinoline-3-carbonyl)-N,N-dimethylpiperazine-1-sulfonamide] it is 109%.
Consider `CCCNC(=O)Nc1cc(-c2nc(C(F)(F)F)cs2)c(-c2ccc3c(c2)c(=O)c(C(=O)N2CCNCC2)cn3C2CN(C)C2)cn1` [Example 166, 1-(5-(1-(1-methylazetidin-3-yl)-4-oxo-3-(piperazine-1-carbonyl)-1,4-dihydroquinolin-6-yl)-4-(4-(trifluoromethyl)thiazol-2-yl)pyridin-2-yl)-3-propylurea], for which the inhibition at 1 µM came to 104%.
For `CCNC(=O)Nc1cc(-c2nc(C(F)(F)F)cs2)c(-c2ccc3c(c2)c(=O)c(C(=O)N2CCN(C)CC2)cn3C2CN(C)C2)cn1` [Example 167, 1-ethyl-3-(5-(1-(1-methylazetidin-3-yl)-3-(4-methylpiperazine-1-carbonyl)-4-oxo-1,4-dihydroquinolin-6-yl)-4-(4-(trifluoromethyl)thiazol-2-yl)pyridin-2-yl)urea], the inhibition at 1 µM is 109%.
`CCCNC(=O)Nc1cc(-c2nc(C(F)(F)F)cs2)c(-c2ccc3c(c2)c(=O)c(C(=O)N2CCN(C(C)=O)CC2)cn3C2CN(C)C2)cn1` [Example 168, 1-(5-(3-(4-acetylpiperazine-1-carbonyl)-1-(1-methylazetidin-3-yl)-4-oxo-1,4-dihydroquinolin-6-yl)-4-(4-(trifluoromethyl)thiazol-2-yl)pyridin-2-yl)-3-propylurea]: the inhibition at 1 µM was found to be 102%.
The figure for `CCNC(=O)Nc1cc(-c2nc(C(F)(F)F)cs2)c(-c2ccc3c(c2)c(=O)c(C(=O)N2CCN(C(C)=O)CC2)cn3C2CN(C)C2)cn1` [Example 169, 1-(5-(3-(4-acetylpiperazine-1-carbonyl)-1-(1-methylazetidin-3-yl)-4-oxo-1,4-dihydroquinolin-6-yl)-4-(4-(trifluoromethyl)thiazol-2-yl)pyridin-2-yl)-3-ethylurea] is 105%; for `CCCNC(=O)Nc1cc(-c2nc(C(F)(F)F)cs2)c(-c2ccc3c(c2)c(=O)c(C(=O)N2CCN(S(C)(=O)=O)CC2)cn3C2CN(C)C2)cn1` [Example 170, 1-(5-(1-(1-methylazetidin-3-yl)-3-(4-(methylsulfonyl)piperazine-1-carbonyl)-4-oxo-1,4-dihydroquinolin-6-yl)-4-(4-(trifluoromethyl)thiazol-2-yl)pyridin-2-yl)-3-propylurea] it is 102%.
Consider `CCNC(=O)Nc1cc(-c2nc(C(F)(F)F)cs2)c(-c2ccc3c(c2)c(=O)c(C(=O)N2CCNCC2)cn3C2CN(C)C2)cn1` [Example 171, 1-ethyl-3-(5-(1-(1-methylazetidin-3-yl)-4-oxo-3-(piperazine-1-carbonyl)-1,4-dihydroquinolin-6-yl)-4-(4-(trifluoromethyl)thiazol-2-yl)pyridin-2-yl)urea], for which the inhibition at 1 µM is 112%.
Regarding `CCCNC(=O)Nc1cc(-c2nc(C(F)(F)F)cs2)c(-c2ccc3c(c2)c(=O)c(C(=O)N2CCN(C)CC2)cn3C2CN(C)C2)cn1` [Example 172, 1-(5-(1-(1-methylazetidin-3-yl)-3-(4-methylpiperazine-1-carbonyl)-4-oxo-1,4-dihydroquinolin-6-yl)-4-(4-(trifluoromethyl)thiazol-2-yl)pyridin-2-yl)-3-propylurea], the inhibition at 1 µM was 107%.
On to `CC(C)NC(=O)Nc1cc(-c2nc(C(F)(F)F)cs2)c(-c2ccc3c(c2)c(=O)c(C(=O)O)cn3CCN(C)C)cn1` [Example 189, 1-(2-(dimethylamino)ethyl)-7-(6-(3-isopropylureido)-4-(4-(trifluoromethyl)thiazol-2-yl)pyridin-3-yl)-4-oxo-1,4-dihydroquinoline-3-carboxylate], for which the inhibition at 1 µM came to 100%.
The figure for `CCCNC(=O)Nc1cc(-c2nc(C(F)(F)F)cs2)c(-c2ccc3c(c2)c(=O)c(C(=O)O)cn3CCOC)cn1` [Example 191, 1-(2-methoxyethyl)-4-oxo-6-(6-(3-propylureido)-4-(4-(trifluoromethyl)thiazol-2-yl)pyridin-3-yl)-1,4-dihydroquinoline-3-carboxylic acid] is 94%; for `CCCNC(=O)Nc1cc(-c2nc(C(F)(F)F)cs2)c(-c2ccc3c(c2)c(=O)c(C(=O)O)cn3C2CCOCC2)cn1` [Example 192, 4-oxo-6-(6-(3-propylureido)-4-(4-(trifluoromethyl)thiazol-2-yl)pyridin-3-yl)-1-(tetrahydro-2H-pyran-4-yl)-1,4-dihydroquinoline-3-carboxylic acid] it is 92%.
Take `CCCNC(=O)Nc1cc(-c2nc(C(F)(F)F)cs2)c(-c2ccc3c(c2)c(=O)c(C(=O)O)cn3CCN2CCOCC2)cn1` [Example 193, 1-(2-morpholinoethyl)-4-oxo-6-(6-(3-propylureido)-4-(4-(trifluoromethyl)thiazol-2-yl)pyridin-3-yl)-1,4-dihydroquinoline-3-carboxylic acid]: the inhibition at 1 µM turned out to be 93%.
In the case of `COCCn1cc(C(=O)O)c(=O)c2cc(-c3cnc(NC(=O)NC(C)C)cc3-c3nc(C(F)(F)F)cs3)ccc21` [Example 194, 6-(6-(3-isopropylureido)-4-(4-(trifluoromethyl)thiazol-2-yl)pyridin-3-yl)-1-(2-methoxyethyl)-4-oxo-1,4-dihydroquinoline-3-carboxylic acid], the inhibition at 1 µM is 93%.
`CC(C)NC(=O)Nc1cc(-c2nc(C(F)(F)F)cs2)c(-c2ccc3c(c2)c(=O)c(C(=O)O)cn3CCN2CCOCC2)cn1` [Example 195, 6-(6-(3-isopropylureido)-4-(4-(trifluoromethyl)thiazol-2-yl)pyridin-3-yl)-1-(2-morpholinoethyl)-4-oxo-1,4-dihydroquinoline-3-carboxylic acid]: the inhibition at 1 µM was found to be 98%.
As for `CC(C)NC(=O)Nc1cc(-c2nc(C(F)(F)F)cs2)c(-c2ccc3c(c2)c(=O)c(C(=O)O)cn3CCC2CCOCC2)cn1` [Example 197, 7-(6-(3-isopropylureido)-4-(4-(trifluoromethyl)thiazol-2-yl)pyridin-3-yl)-4-oxo-1-(2-(tetrahydro-2H-pyran-4-yl)ethyl)-1,4-dihydroquinoline-3-carboxylate], the inhibition at 1 µM came to 116%.
`CCCNC(=O)Nc1cc(-c2nc(C(F)(F)F)cs2)c(-c2ccc3c(c2)c(=O)c(C(=O)O)cn3CCC2CCN(C)CC2)cn1` [Example 198, 1-(2-(1-methylpiperidin-4-yl)ethyl)-4-oxo-6-(6-(3-propylureido)-4-(4-(trifluoromethyl)thiazol-2-yl)pyridin-3-yl)-1,4-dihydroquinoline-3-carboxylic acid]: the inhibition at 1 µM came to 108%.
For the molecule `CC(C)NC(=O)Nc1cc(-c2nc(C(F)(F)F)cs2)c(-c2ccc3c(c2)c(=O)c(C(=O)O)cn3C2CCOCC2)cn1` [Example 199, 6-(6-(3-isopropylureido)-4-(4-(trifluoromethyl)thiazol-2-yl)pyridin-3-yl)-4-oxo-1-(tetrahydro-2H-pyran-4-yl)-1,4-dihydroquinoline-3-carboxylic acid], the inhibition at 1 µM was 103%.
As for `CCCNC(=O)Nc1cc(-c2nc(C(F)(F)F)cs2)c(-c2ccc3c(c2)c(=O)c(C(=O)O)cn3CCC2CCOCC2)cn1` [Example 200, 4-oxo-6-(6-(3-propylureido)-4-(4-(trifluoromethyl)thiazol-2-yl)pyridin-3-yl)-1-(2-(tetrahydro-2H-pyran-4-yl)ethyl)-1,4-dihydroquinoline-3-carboxylic acid], the inhibition at 1 µM turned out to be 111%.
In the case of `CC(C)NC(=O)Nc1cc(-c2nc(C(F)(F)F)cs2)c(-c2ccc3c(c2)c(=O)c(C(=O)O)cn3CCC2CCN(C)CC2)cn1` [Example 202, 6-(6-(3-isopropylureido)-4-(4-(trifluoromethyl)thiazol-2-yl)pyridin-3-yl)-1-(2-(1-methylpiperidin-4-yl)ethyl)-4-oxo-1,4-dihydroquinoline-3-carboxylic acid] it was 103%; in that of `CCCNC(=O)Nc1cc(-c2nc(C(F)(F)F)cs2)c(-c2ccc3c(c2)c(=O)c(C(=O)NCCO)cn3CCN(C)C)cn1` [Example 203, 1-(2-(dimethylamino)ethyl)-N-(2-hydroxyethyl)-4-oxo-6-(6-(3-propylureido)-4-(4-(trifluoromethyl)thiazol-2-yl)pyridin-3-yl)-1,4-dihydroquinoline-3-carboxamide], 87%.
